PubChem BioAssay AID1919015 (Molecular Pharmacology Branch, DTP, NCI, 2023)

System: OVCAR-5 complex spheroids with HUVEC/MSC, viability, % test/control
Test: Anticancer human tumor OVCAR-5 cell line growth inhibition [AhR];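 further: spheroids exposed to compounds for 7 days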;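 on viability, T/C: 100% = DMSO vehicle control wells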
Conditions: for IC50: curve of first compound; for viability, T/C: stronger effect = lower value
Excerpt: Multicellular complex tumor spheroid response to aryl hydrocarbon receptor antagonists in combination with a variety of drugs and investigational agents in selected tumor cell lines
The current study was undertaken to assess response to aryl hydrocarbon receptor antagonists in combination with standard-of-care drugs and investigational agents in solid tumor complex spheroid models. Complex spheroids include a stromal component modeled by human endothelial cells (HUVEC) and fibroblasts modeled by human mesenchymal stem cells (MSCs). The concentration ranges selected for each drug and investigational agent were based upon clinically achievable concentrations if the clinical Cmax of the agent was known.
Compounds. The drugs and investigational agents: BAY 2416964 (NSC825713), GNF351 (NSC835774), CH-223191 (NSC835775), CPI-455 (NSC825282), aza-TdCyd (NSC777586), decitabine (NSC127716), belinostat (NSC758774), entinostat (NSC756642), pevonedistat (NSC761192), tazemetostat (NSC777109), talazoparib (NSC765396), olaparib (NSC753686), selinexor (NSC780203), nedisertib (M3814, NSC802822), bortezomib (NSC756655), venetoclax (NSC766270), doxorubicin (NSC123127), elimusertib (BAY189344, NSC800525), ceralasertib (AZD6738, NSC777638), TAK-243 (NSC785004), alisertib (NSC759677), etoposide (NSC141540), topotecan (NSC609699), eribulin (NSC707389), gemcitabine (NSC613327), carboplatin (NSC241240), cisplatin (NSC119875), and SN-38 (NSC673596) were obtained from the National Cancer Institute (NCI) Developmental Therapeutics Program Chemical Repository (32). The FDA-approved anticancer drug set is available from the Developmental Therapeutics Program at https://dtp.cancer.gov/organization/dscb/obtaining/available plates.htm. […] The stock solutions were prepared in dimethyl sulfoxide (DMSO, Sigma-Aldrich, St. Louis, MO, cat. D2650), except for the platinum compounds which were prepared in saline (Quality Biological, Gaithersburg, MD, cat. 114-055-101), at 800-fold the tested concentration and stored at -70 degrees C prior to their use. All drugs and investigational agents were tested over a range starting from a high concentration at or near the clinical Cmax and decreasing in half-log increments. If the clinical Cmax for an agent had not been determined, the highest concentration tested was 10 microM (Table 1).
Cell Culture. All cells were maintained in an incubator at 37 degrees C and 5% CO2 with 95% humidity. The PDC lines were cultured according to standard operating procedures established by the NCI PDMR (https://pdmr.cancer.gov). Briefly, all PDCs were thawed and cultured in Matrigel-coated flasks prepared with a working solution of 1X Ham's F-12 nutrient mix, without supplementation (Invitrogen, Waltham, MA, cat. 11765054), 100 U/mL penicillin-streptomycin (Invitrogen, cat. 15140122), and 2.5% Matrigel (Corning Inc., Corning, NY, cat. 354248) for the first three passages. All PDCs were cultured in complete DMEM/F-12 media containing advanced DMEM/F-12 (Invitrogen, cat. 12634028), 4.9% defined fetal bovine serum, heat inactivated (HyClone Laboratories Inc., Logan, UT, cat. SH30070.03HI), 389 ng/mL hydrocortisone (Sigma-Aldrich, cat. H4001), 9.7 ng/mL human EGF recombinant protein (Invitrogen, cat. PHG0313), 23.4 microg/mL adenine (Sigma-Aldrich, cat. A2786), 97.3 U/mL penicillin-streptomycin (Invitrogen, cat. 15140122), 1.9 mM L-glutamine (Invitrogen, cat. 25030081), and 9.7 microM Y-27632 dihydrochloride (Tocris Bioscience, Bristol, United Kingdom, cat. 1254). The PDCs were cultured in complete DMEM/F12 media without 10 microM Y-27632 dihydrochloride for at least two passages prior to the screen. The established cell lines NCI-H1341 and […] were cultured in DMEM/F-12, HEPES (Invitrogen, cat. 11330032), 5% defined fetal bovine serum (HyClone Laboratories Inc., cat. SH30070.03), ITS premix universal culture supplement [insulin (5 microg/mL), transferrin (5 microg/mL), and selenious acid (5 ng/mL)] […]

[1] = second compound 0.1 µM, first compound 0.0316 µM
[2] = second compound 0.1 µM, first compound 0.1 µM
[3] = second compound 0.1 µM, first compound 0.316 µM
[4] = second compound 0.1 µM, first compound 1 µM
[5] = second compound 0.316 µM, first compound 0.0316 µM
[6] = second compound 0.316 µM, first compound 0.1 µM
[7] = second compound 0.316 µM, first compound 0.316 µM
[8] = second compound 0.316 µM, first compound 1 µM
[9] = second compound 1 µM, first compound 0.0316 µM
[10] = second compound 1 µM, first compound 0.1 µM
[11] = second compound 1 µM, first compound 0.316 µM
[12] = second compound 1 µM, first compound 1 µM
[13] = second compound 3.16 µM, first compound 0.0316 µM
[14] = second compound 3.16 µM, first compound 0.1 µM
[15] = second compound 3.16 µM, first compound 0.316 µM
[16] = second compound 3.16 µM, first compound 1 µM
[17] = second compound 10 µM, first compound 0.0316 µM
[18] = second compound 10 µM, first compound 0.1 µM
[19] = second compound 10 µM, first compound 0.316 µM
[20] = second compound 10 µM, first compound 1 µM

Compound | IC50 (second compound 0.1 µM) [nM] | IC50 (second compound 0.316 µM) [nM] | IC50 (second compound 1 µM) [nM] | IC50 (second compound 3.16 µM) [nM] | IC50 (second compound 10 µM) [nM] | viability, T/C [1] [%] | viability, T/C [2] [%] | viability, T/C [3] [%] | viability, T/C [4] [%] | viability, T/C [5] [%] | viability, T/C [6] [%] | viability, T/C [7] [%] | viability, T/C [8] [%] | viability, T/C [9] [%] | viability, T/C [10] [%] | viability, T/C [11] [%] | viability, T/C [12] [%] | viability, T/C [13] [%] | viability, T/C [14] [%] | viability, T/C [15] [%] | other results
COc1cccc2c1C(=O)c1c(O)c3c(c(O)c1C2=O)CC(O)(C(=O)CO)CC3OC1CC(N)C(O)C(C)O1 (stereo not given) + CC(CO)NC(=O)c1cc(-c2ccc(Cl)cc2)nn(-c2cnn(C)c2)c1=O | 267 | 285 | 347 | 351 | 326 | 79.8 | 62.8 | 50 | 23.5 | 80 | 63.9 | 50.9 | 23.3 | 82.5 | 71.5 | 53.1 | 23.8 | 77 | 70.1 | 52.7 | viability, T/C (second compound 0.1 µM, first compound 3.16 µM): 3.18%; viability, T/C (second compound 0.1 µM, first compound 10 µM): 0.94%; viability, T/C (second compound 0.316 µM, first compound 3.16 µM): 2.8%; viability, T/C (second compound 0.316 µM, first compound 10 µM): 0.91%; viability, T/C (second compound 1 µM, first compound 3.16 µM): 2.66%; viability, T/C (second compound 1 µM, first compound 10 µM): 0.86%; viability, T/C [16]: 22.9%; viability, T/C (second compound 3.16 µM, first compound 3.16 µM): 1.63%; viability, T/C (second compound 3.16 µM, first compound 10 µM): 1.01%; viability, T/C [17]: 72.7%; viability, T/C [18]: 76.2%; viability, T/C [19]: 49.5%; viability, T/C [20]: 15%; viability, T/C (second compound 10 µM, first compound 3.16 µM): 0.79%; viability, T/C (second compound 10 µM, first compound 10 µM): 1.12%
Nc1ncn(C2CC(O)C(CO)O2)c(=O)n1 (stereo not given) + CC(CO)NC(=O)c1cc(-c2ccc(Cl)cc2)nn(-c2cnn(C)c2)c1=O | > 1000 | > 1000 | > 1000 | > 1000 | > 1000 | 98 | 88.5 | 72.6 | 62.4 | 99 | 83.2 | 70.8 | 62 | 109 | 91.6 | 71.3 | 66.4 | 97.9 | 83.7 | 70.6 | viability, T/C (second compound 0.1 µM, first compound 0.00316 µM): 107%; viability, T/C (second compound 0.1 µM, first compound 0.01 µM): 106%; viability, T/C (second compound 0.316 µM, first compound 0.00316 µM): 107%; viability, T/C (second compound 0.316 µM, first compound 0.01 µM): 107%; viability, T/C (second compound 1 µM, first compound 0.00316 µM): 116%; viability, T/C (second compound 1 µM, first compound 0.01 µM): 114%; viability, T/C (second compound 3.16 µM, first compound 0.00316 µM): 105%; viability, T/C (second compound 3.16 µM, first compound 0.01 µM): 99.4%; viability, T/C [16]: 59.2%; viability, T/C (second compound 10 µM, first compound 0.00316 µM): 97.6%; viability, T/C (second compound 10 µM, first compound 0.01 µM): 99.9%; viability, T/C [17]: 97.4%; viability, T/C [18]: 88.4%; viability, T/C [19]: 72.9%; viability, T/C [20]: 64.2%
